Laboratory results from patent US20240174717A1, “AFFINITY AGENTS” (Avitide LLC, priority 2021, published 2024).
Bridges are numbered along the chain shown (N, C = ends). [ ]: non-standard residue; d: D form. (Peg)3 = 12-amino-4,7,10-trioxadodecanoic acid subunits; PEG3 = NCCOCCOCCOCCC(=O)O; code 4 = not defined here; Dap = NC[C@H](N)C(=O)O

Legend:
[1] = tested on: exosomes; test: Filter plate static binding experiment: affinity capture of exosomes by resins; conditions: ligand conjugated to A50 beads, load 1E10 particles/mL in PBST, 60 min
Protocol: A filter plate binding experiment using Durapore Membrane.
Resins were prepared by conjugating ligands to A50 beads.

[2] = Stability of affinity resin towards sodium hydroxide (static binding before and after treatment); format: physicochemical; conditions: 0.1 M NaOH for 18 hours, then static binding experiment vs untreated resin
Protocol: Resin comprising SEQ ID No: 43 was incubated with 0.1 M NaOH for 18 hours, washed and a static binding experiment was conducted as described in example 5.

Row | Ave Capture (%) ([1]; ligand density 7.4 mg/mL) | Ave Capture (%) ([1]; ligand density 11.2 mg/mL) | Ave Capture (%) ([1]; ligand density 7.7 mg/mL) | Ave Capture (%) ([1]; ligand density 9.8 mg/mL) | Substance | stability of resin towards sodium hydroxide [2]
1 | 89 | 98 |  |  | Ac-NYWR5VWFPHAQG2VSTA-(Peg)3K-Amide (Ac-NYWRDVWFPHAQG[Dap]VSTA[(Peg)3]K-NH2; lactam 5-14) [SEQ ID No. 43] | stable towards 0.1 M NaOH
2 |  |  | 38 | 97 | Ac-NYWR5VWFPHAQG4VSTA-(Peg)3K-Amide (Ac-NYWRDVWFPHAQG[code 4]VSTA[PEG3]K-NH2; lactam 5-14; not fully specified (some residues); printed as Ac-NYWR5VWFPHAQG4VSTA-(Peg)3K-Amide; reading uncertain) [SEQ ID No. 28] | 
